Experimental data from patent US20090043129A1 (priority 2005, published 2009).
Where two headings read alike, the source gives them in different places.

Columns and labels:
[1] = target: T1, Fatty Acid Amide Hydrolase (FAAH) (Rattus norvegicus, UniProt P97612); experiment: biochemical
T1 sequence (P97612 1-579): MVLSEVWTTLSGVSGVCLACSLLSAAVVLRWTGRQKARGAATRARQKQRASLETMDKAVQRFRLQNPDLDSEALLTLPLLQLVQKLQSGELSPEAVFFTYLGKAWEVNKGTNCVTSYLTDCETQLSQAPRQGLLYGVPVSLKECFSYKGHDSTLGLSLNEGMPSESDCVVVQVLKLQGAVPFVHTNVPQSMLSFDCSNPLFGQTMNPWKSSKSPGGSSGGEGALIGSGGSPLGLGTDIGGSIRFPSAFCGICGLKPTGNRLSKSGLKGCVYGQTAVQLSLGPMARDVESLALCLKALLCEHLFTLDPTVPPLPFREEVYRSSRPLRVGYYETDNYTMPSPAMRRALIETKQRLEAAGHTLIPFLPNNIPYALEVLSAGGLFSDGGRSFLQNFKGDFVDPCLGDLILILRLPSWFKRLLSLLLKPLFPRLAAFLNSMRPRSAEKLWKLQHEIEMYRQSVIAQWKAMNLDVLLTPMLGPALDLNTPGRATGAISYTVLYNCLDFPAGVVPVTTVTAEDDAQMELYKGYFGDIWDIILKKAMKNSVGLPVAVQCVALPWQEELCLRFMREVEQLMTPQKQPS
Protocol: Assay for Fatty Acid Amide Hydrolase (FAAH)
The effect of compounds on the enzymatic hydrolysis of [^14C]anandamide (6 μM) was studied using membranes prepared from rat brain incubated with increasing concentrations of compounds in 50 mM Tris-HCl, pH 9, for 30 minutes at 37° C. (Di Marzo et al., 2002). [^14C]ethanolamine produced from [^14C]anandamide hydrolysis was measured counting the scintillation of the aqueous phase after extraction of the incubation mixture with 2 volumes of CHCl3/CH3OH (2:1 by volume). […]

[2] = target: T2, CB1 cannabinoid receptors (Mus musculus, UniProt P47746); experiment: Forskolin-induced cyclic AMP in N18TG2 neuroblastoma cells; assay type: cell-based; settings: N18TG2 cells
T2 construct: N18TG2 mouse neuroblastoma cells, which constitutively and selectively express the CB 1 cannabinoid receptors; endogenous in cells; host or cells: N18TG2 mouse neuroblastoma cells
Protocol: After incubation, 800 μl of methanol were added, cells were extracted and cyclic AMP was determined with a cyclic AMP assay kit (Amersham, UK), in accordance with the supplier's recommendations.

[3] = target: human recombinant CB1 receptor (Homo sapiens, UniProt P21554); assay type: binding; parameters: purchased Perkin-Elmer; host or cells: COS cells
[4] = target: human recombinant CB2 receptor (Homo sapiens, UniProt P34972); experiment: CB2 binding, [3H]CP55,940 displacement, membranes from transfected COS cells; parameters: purchased Perkin-Elmer; host or cells: COS cells; settings: recombinant human CB2, COS cell membranes
CB1 = target: T3, CB1 (Rattus norvegicus, UniProt P20272); experiment: Preliminary selection with rat brain membranes; assay type: binding; settings: rat brain and spleen membranes, read-out: CB1 (n.a. class, IC50 in preliminary selection)
T3 construct: from tissue; host or cells: rat brain membranes

CB2 = target: T4, CB2 (Rattus norvegicus, UniProt Q9QZN9); experiment: Preliminary selection with rat spleen membranes; assay type: binding; settings: rat brain and spleen membranes, read-out: CB2 (n.a. class, IC50 in preliminary selection)
T4 construct: from tissue; host or cells: rat spleen membranes
T4 sequence (Q9QZN9 1-360): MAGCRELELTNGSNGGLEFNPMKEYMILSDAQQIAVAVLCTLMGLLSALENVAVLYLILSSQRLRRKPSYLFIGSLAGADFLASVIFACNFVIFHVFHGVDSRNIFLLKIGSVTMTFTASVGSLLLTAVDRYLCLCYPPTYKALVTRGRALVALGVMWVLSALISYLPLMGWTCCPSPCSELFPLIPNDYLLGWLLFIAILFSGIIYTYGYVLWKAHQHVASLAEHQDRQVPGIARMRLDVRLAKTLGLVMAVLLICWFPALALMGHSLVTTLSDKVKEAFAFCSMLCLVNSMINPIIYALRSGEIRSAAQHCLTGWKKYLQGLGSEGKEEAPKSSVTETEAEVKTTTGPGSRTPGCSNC

[5] = system: Anandamide Membrane Transporter (AMT); experiment: Anandamide uptake by RBL-2H3 cells; assay type: cell-based; settings: anandamide uptake, read-out: AMT IC50
Protocol: Assay for the Anandamide Membrane Transporter (AMT)
The effect of the compounds on the uptake of anandamide by the RBL-2H3 cells was studied as described (Di Marzo et al., 2002). Cells were incubated with [^14C]anandamide (4 μM) for 5 minutes at 37° C., in the presence or absence of varying concentrations of the inhibitors. Residual [^14C]anandamide in the incubation media after extraction with CHCl3/CH3OH (2:1 by volume) was used as a measure of the anandamide that was taken up by cells. Data are expressed as the concentration that produces 50% of inhibition of anandamide uptake (IC50) calculated with GraphPad.

[6] = recombinant human CB1, COS cell membranes
[7] = rat brain membranes, [14C]anandamide 6 μM, read-out: FAAH IC50

Chain of human recombinant CB2 receptor (P34972 whole entry): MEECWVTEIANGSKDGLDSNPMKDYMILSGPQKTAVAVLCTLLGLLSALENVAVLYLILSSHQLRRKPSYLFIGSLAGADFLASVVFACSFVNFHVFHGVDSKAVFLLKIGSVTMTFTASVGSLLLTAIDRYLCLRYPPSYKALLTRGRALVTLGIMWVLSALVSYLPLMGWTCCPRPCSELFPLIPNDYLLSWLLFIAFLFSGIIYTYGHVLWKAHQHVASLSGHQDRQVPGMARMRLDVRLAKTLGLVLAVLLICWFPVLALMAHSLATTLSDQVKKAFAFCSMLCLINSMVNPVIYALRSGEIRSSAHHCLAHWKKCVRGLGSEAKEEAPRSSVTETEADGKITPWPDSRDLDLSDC
T3 sequence (P20272 whole entry): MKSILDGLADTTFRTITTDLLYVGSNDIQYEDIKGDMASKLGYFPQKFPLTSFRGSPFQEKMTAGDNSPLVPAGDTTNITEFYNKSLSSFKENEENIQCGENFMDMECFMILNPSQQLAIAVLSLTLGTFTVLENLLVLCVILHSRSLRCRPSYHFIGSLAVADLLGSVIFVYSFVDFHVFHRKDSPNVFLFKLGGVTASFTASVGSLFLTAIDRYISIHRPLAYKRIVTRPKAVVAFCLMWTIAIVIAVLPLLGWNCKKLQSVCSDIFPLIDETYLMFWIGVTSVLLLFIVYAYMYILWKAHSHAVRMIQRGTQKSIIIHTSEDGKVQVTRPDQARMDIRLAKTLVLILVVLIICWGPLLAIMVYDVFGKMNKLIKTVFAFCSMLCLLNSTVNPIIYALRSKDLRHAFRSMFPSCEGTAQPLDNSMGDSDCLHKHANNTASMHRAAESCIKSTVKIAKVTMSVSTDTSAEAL
Chain of human recombinant CB1 receptor (P21554 whole entry): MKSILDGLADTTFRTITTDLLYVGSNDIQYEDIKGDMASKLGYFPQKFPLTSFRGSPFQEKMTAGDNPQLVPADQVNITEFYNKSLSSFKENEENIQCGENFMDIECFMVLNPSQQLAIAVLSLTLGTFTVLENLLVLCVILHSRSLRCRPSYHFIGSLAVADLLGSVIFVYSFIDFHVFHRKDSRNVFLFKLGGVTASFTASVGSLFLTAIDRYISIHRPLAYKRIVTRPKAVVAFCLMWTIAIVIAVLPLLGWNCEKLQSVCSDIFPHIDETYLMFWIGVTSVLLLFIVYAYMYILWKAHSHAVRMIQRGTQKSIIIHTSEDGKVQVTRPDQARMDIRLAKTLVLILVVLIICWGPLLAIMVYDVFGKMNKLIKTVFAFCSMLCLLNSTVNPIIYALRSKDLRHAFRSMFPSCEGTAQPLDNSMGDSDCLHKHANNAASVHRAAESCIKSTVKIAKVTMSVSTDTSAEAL
T2 sequence (P47746 whole entry): as the sequence (P20272 whole entry) above, with E95D counted along it

SMILES	melting point	Ki [4]	IC50 (CB1)	IC50 (CB2)	IC50 [5]	other results
CCCCCCc1ccc(OCCCCCC(=O)NC2CC2)cc1O [Compound 40, 6-(3-Hydroxy-4-hexyl-phenoxy)-hexanoic acid cyclopropylamide]	134.2 °C	540 nM	–	–	–	IC50 ([1]; rat brain membranes, read-out: FAAH (n.a. class)): > 10 µM; functional behaviour at CB1 receptors ([2]; cAMP): inverse agonist/antagonist; EC50 ([2]; forskolin 1 μM, read-out: half-maximum effect concentration, stimulation of forskolin-induced cAMP formation): 150 nM; Ki [3, 6]: 180 nM
CCCCCCc1ccc(OCCCCCCCCCCCCCCCC(=O)NC2CC2)cc1O [Compound 46, 16-(3-Hydroxy-4-hexyl-phenoxy)-hexadecanoic acid cyclopropylamide]	114.3 °C	–	> 10 µM	> 10 µM	–	–
CCCCCCc1ccc(OCCCCCCCCCCCCCCCC(=O)NCCO)cc1O [Compound 45, 16-(3-Hydroxy-4-hexyl-phenoxy)-hexadecanoic acid (2-hydroxy-ethyl)-amide]	96.4 °C	–	> 10 µM	> 10 µM	–	–
CCCCCCc1ccc(O)cc1OCCCCCCCCCCCCCCCC(=O)NCCO [Compound 54, 16-(2-Hexyl-5-hydroxy-phenoxy)-hexadecanoic acid (2-hydroxy-ethyl)-amide]	77.2 °C	–	> 10 µM	> 10 µM	–	–
O=C(CCCCCCCCCCOc1cccc(O)c1)Nc1ccc(O)cc1 [Compound 35, 11-(3-Hydroxy-phenoxy)-undecanoic acid (4-hydroxy-phenyl)-amide]	121.2 °C	–	> 10 µM	–	–	–
CCCCCCc1ccc(OCCCCCCCCCCC(=O)Nc2ccc(O)cc2)cc1O [Compound 44, 11-(3-Hydroxy-4-hexyl-phenoxy)-undecanoic acid (4-hydroxy-phenyl)-amide]	121.2 °C	–	> 10 µM	–	> 25 µM	IC50 [1, 7]: 50 µM
CCCCCCc1ccc(O)cc1OCCCCCCCCCCC(=O)Nc1ccc(O)cc1 [Compound 53, 11-(2-Hexyl-5-hydroxy-phenoxy)-undecanoic acid (4-hydroxy-phenyl)-amide]	108.7 °C	2110 nM	–	–	> 25 µM	IC50 [1, 7]: 18 µM; Ki [3]: 3300 nM
CCCCCc1cc(O)cc(OCCCCCCCCCCC(=O)NCCO)c1 [Compound 24, 11-(3-Hydroxy-5-pentyl-phenoxy)-undecanoic acid (2-hydroxy-ethyl)-amide]	55 to 56 °C	160 nM	–	–	25 µM	IC50 [1]: > 10 µM; Ki [3, 6]: 800 nM
